From patent publication US11820758B2, “NEK6 kinase inhibitors useful for the treatment of solid tumors” (CONSIGLIO NAZIONALE DELLE RICERCHE, priority 2018, dated 2023) come the findings set out here.

For experiment [1], the system named is NCI-H1975. Kind of experiment: Cytotoxicity (ATPlite, 72 h) on NCI-H1975. Type of experiment: cell-based. To be noted: Homo sapiens, NCI-H1975 (lung), read-out: IC50 values (μM ± SEM). As for the experimental part: (§1) The compounds C8 and C21 identified in the previous assay of enzymatic activity were tested on 8 tumour cell lines representative of different solid tumours: MDA-MB231 and MCF7 (mammary tumour; ATCC, LGC Standards S.r.L, Sesto San Giovanni, MI), PEO1 and COV318 (ovarian tumour; ECACC, Saltssbury, UK), HCT-15 and SW948 (colon tumour; ECAC and ATCC, Sesto San Giovanni, MI), NCI-H1975 and NCI-H1299, (lung tumour; ATCC). Through experiments of cytotoxicity the capability of such compounds of inhibiting the cell growth was evaluated.
(§2) The cell lines were kept in culture in 75-cm^2 average flasks in atmosphere humidified with 5% CO2/95% air in the following media: DMEM supplemented with 10% FBS, 1% Kanamycin, 1% amino acids not essential for MDA-MB231 and MCF7; RPMI 10% FBS, 1% Kanamycin, 1% amino acids not essential for COV318, NCI-H1975 and NCI-H1299, with addition of 2 mM Sodium Pyruvate for PEO-1; RPMI 20% FBS, 1% Kanamycin, 1% amino acids not essential for HCT-15; LEIBOVITZ'S L15, 10% FBS, 1% Kanamycin, 1% amino acids not essential for SW948. All reagents were purchased at Sigma-Aldrich (St. Louis, MO) if not otherwise specified.
(§3) 24 h after plating the compounds were added in quadruplicate at the following concentrations: C8 (6 μM; 12 μM; 24 μM; 48 μM; 96 μM; 192 μM) and C21 (8 μM; 16 μM; 32 μM; 64 μM; 128 μM; 256 μM).

The target of experiment [2] is T1, NEK6 (Homo sapiens, UniProt Q9HC98). The experiment in a line: LANCE-Ultra NEK6 kinase assay. It is filed as biochemical. The conditions noted are these: for IC50: LANCE-Ultra, 4 nM NEK6, 50 nM ULight-p70 S6K peptide, 100 μM ATP, 90 min, average of 4 experiments ± SEM, read-out: IC50 of NEK6 activity inhibition; for NEK6 activity inhibition in screening: single concentration 30 μM, FIG. 1. As for the experimental part: FIG. 1. NEK6 activity inhibition. Bar graph representing the results of the screening of several compounds at 30 μM by using LANCE-Ultra NEK6 kinase assay (PerkinElmer) incubated with 4 nM NEK6, 50 nM ULight-p70 S6K Peptide and 100 μM ATP for 90 minutes at room temperature. As control inhibitor quercetin was used.
T1 sequence (Q9HC98 whole entry): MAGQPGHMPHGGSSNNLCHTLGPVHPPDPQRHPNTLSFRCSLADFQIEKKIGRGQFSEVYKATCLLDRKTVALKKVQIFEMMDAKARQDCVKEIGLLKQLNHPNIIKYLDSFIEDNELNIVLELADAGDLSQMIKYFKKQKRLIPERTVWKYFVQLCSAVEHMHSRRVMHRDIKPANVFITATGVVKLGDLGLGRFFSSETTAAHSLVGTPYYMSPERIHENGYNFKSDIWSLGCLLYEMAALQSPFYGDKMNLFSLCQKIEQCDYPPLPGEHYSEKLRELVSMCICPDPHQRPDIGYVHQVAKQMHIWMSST
FIG. 2. FIG. 2 represents the molecules identified with inhibitory activity on NEK6 by using LANCE-Ultra NEK6 kinase assay (PerkinElmer). The curves represent the % of NEK6 activity depending upon the inhibitor concentration. A) The compound 8 (ZINC05007751) is capable of inhibiting the NEK6 activity with 1050=3.4±1.2 μM; B) the compound 21 (ZINC04384801) inhibits NEK6 at 1050=2.6±0.05 μM. The IC50 value derives from the average of IC50s of 4 independent experiments±SEM. Each point of the curve represents the average of a triplicate±SEM of a representative experiment.
The compounds in powder (Molport, Riga, LV-1011, Latvia) were dissolved in DMSO 100% at a stock concentration of 10 mM. The fresh compounds were tested initially at a single concentration (30 μM) with LANCE NEK6 Ultra Kinase Assays (Perkin Elmer, Monza (MB)), whereas the remaining solution was aliquoted, kept at −20° C. and used for the enzymatic inhibition curves of the selected compounds. The reaction was performed in 384-OptiPlate™-384 (PerkinElmer #6007290) white plates, by using as reagents the Europium-labeled anti-phospho-p70 S6K (Thr389) Antibody (PerkinElmer #TRF0214), ULight-p70 S6K (Thr389) (PerkinElmer #TRF0126), NEK6 (Carna, Chuo-ku, Kobe, Japan, #05-130), LANCE® Detection Buffer, 10×(PerkinElmer #CR97-100), ATP (Sigma-Aldrich, Saint Louis, U.S.A, #A2383). NEK6, ATP and the compounds were diluted in Kinase Buffer (50 mM HEPES pH 7.5, 1 mM EGTA, 10 mM MgCl2, 2 mM DTT and 0.01% Tween-20), and where necessary DMSO was added to obtain a concentration of 0.3% in the final reaction volume. For the initial screening the compounds were tested at the final concentration of 30 μM, final DMSO 0.3% in kinase buffer and incubated with 4 nM NEK6, 50 nM ULight-p70 S6K Peptide and 100 μM ATP, in a reaction volume of 10 μL for 90 minutes at room temperature. As control inhibitor quercetin (Molport #001-740-557) was used. For the enzymatic inhibition curves, the selected compounds C8 (Molport #002-933-483), C21 (Molport #000-911-820) were diluted serially (dilutions 1:2) from 30 μM to 0.9375 μM (final concentrations: 30 μM; 15 μM; 7.5 μM; 3.75; 1.875 μM; 0.9375 μM in 0.3% DMSO) and incubated under the same conditions. […] After the film removal, the signal was read at the Enspire (PerkinElmer) plate reader (excitation 320 nm and emission at 665 nm). The % of enzymatic activity of NEK6 was calculated with respect to the control (100% activity), after subtracting the white of the experiment.

Experiment [3] deals with NCI-H1299. Kind of experiment: Cytotoxicity (ATPlite, 72 h) on NCI-H1299. Type of experiment: cell-based, human. The conditions noted are these: NCI-H1299 (lung), read-out: IC50 values (μM ± SEM). As for the experimental part: as §1, §2
24 h after plating the compounds were added in quadruplicate at the following concentrations: C8 (6 μM; 12 μM; 24 μM; 48 μM; 96 μM; 192 μM) and C21 (8 μM; 16 μM; 32 μM; 64 μM; 128 μM; 256 μM). […] The compound 21 has no inhibitory activity (IC50>100 μM), (Table 1).

The target in experiment [4] is T1, NEK6. The experiment in a line: Off-chip Mobility Shift Assay (MSA). It is filed as biochemical. The conditions noted are these: CDK7 peptide 1000 nM, 5 h. As for the experimental part: The inhibitory activity on NEK6 of the compounds C8 and C21 was checked with the technique of Off-chip Mobility Shift Assay (MSA) (CARNA Biosciences Study ID: CBS170097, CARNA Biosciences, Kobe). […] PKR inhibitor was used as positive control. […] of solution 4× of the compounds, […] of 4× Substrate/ATP/Metal solution, and […] of 2× kinase solution were prepared with the reaction buffer (20 mM HEPES, 0.01% Triton X-100, 1 mM DTT, pH7.5), mixed and incubated in wells of polypropylene in 384-well plate for 5 hours at room temperature. Afterwards, […] of Termination Buffer (QuickScout Screening Assist MSA; Carna Biosciences) were added. One proceeded with analysing the reaction with LabChip system (Perkin Elmer), by separating and quantizing the peaks of product and substrate. The kinase reaction was then evaluated based upon the ratio (P/(P+S)) calculated based upon the heights of peak of peptides product (P) and substrate (S). The reading value of the control reaction (complete reaction mix) was placed as 0% of inhibition and the bottom value (Enzima (−)) was placed as 100% of inhibition, then the inhibition percentage of each sample was calculated. The value of IC50 was calculated by means of a logistic model at 4 parameters of the inhibition curves by adaptation to a four-parameter logistic curve.

For experiment [5], the system named is MCF-7. Kind of experiment: Cytotoxicity (ATPlite, 72 h) on MCF-7. Type of experiment: cell-based. To be noted: Homo sapiens, MCF7, MCF-7 (breast), read-out: IC50 values (μM ± SEM). As for the experimental part:
as §1, §2
MCF-7 were plated (40,000 cells/ml) in a 96-well black plate. […] 24 h after plating the compounds were added in quadruplicate at the following concentrations: C8 (6 μM; 12 μM; 24 μM; 48 μM; 96 μM; 192 μM) and C21 (8 μM; 16 μM; 32 μM; 64 μM; 128 μM; 256 μM).

Experiment [6] relates to COV318. Kind of experiment: Cytotoxicity (ATPlite, 72 h) on COV318. To be noted: Homo sapiens, COV318 (ovary), read-out: IC50 values (μM ± SEM). It is filed as cell-based. As for the experimental part:
as §1, §2, §3

Experiment [7] relates to MDA-MB-231. The experiment in a line: Cytotoxicity (ATPlite, 72 h) on MDA-MB-231. Type of experiment: cell-based, human. To be noted: MDA-MB-231 (breast), read-out: IC50 values (μM ± SEM). As for the experimental part:
as §1, §2
24 h after plating the compounds were added in quadruplicate at the following concentrations: C8 (6 μM; 12 μM; 24 μM; 48 μM; 96 μM; 192 μM) and C21 (8 μM; 16 μM; 32 μM; 64 μM; 128 μM; 256 μM). […] Similarly, the compound 21 inhibits the growth by 50% at 75±12 μM.

Experiment [8] deals with SW948. Kind of experiment: Cytotoxicity (ATPlite, 72 h) on SW948. It is filed as cell-based. To be noted: Homo sapiens, SW948 (colon), read-out: IC50 values (μM ± SEM). As for the experimental part: as §1, §2, §3
The test system of experiment [9] is HCT-15. The experiment in a line: Cytotoxicity (ATPlite, 72 h) on HCT-15. It is filed as cell-based, human. To be noted: HCT-15 (colon), read-out: IC50 values (μM ± SEM). As for the experimental part:
as §1, §2
HCT-15 were plated (40,000 cells/ml) in a 96-well black plate. […] 24 h after plating the compounds were added in quadruplicate at the following concentrations: C8 (6 μM; 12 μM; 24 μM; 48 μM; 96 μM; 192 μM) and C21 (8 μM; 16 μM; 32 μM; 64 μM; 128 μM; 256 μM). […] The compound 21 has no inhibitory activity (IC50>100 μM), (Table 1).

Experiment [10] has as its system PEO-1. The experiment in a line: cells. The conditions noted are these: Homo sapiens, PEO1, 72 h, read-out: IC50 (nM ± SEM).
Protocol: In order to prepare the cytotoxicity experiments the cells were trypsinized, counted with NEUBAUER chamber and plated in black plate having 96 wells per line (Perkinelmer). MDA-MB231, PEO-1, COV318, SW948, NCI-H1975 and NCI-H1299, were plated at 100,000 cells/ml, HCT-15 and MCF-7 at 40,000 cells/ml, In each well of the plate 200 μl of cell suspension were added. […] Parallelly, the single curves of each drug and of C8 were performed.
After 72 h from the addition of the compounds and/or drugs, the effect on the cell growth was evaluated by using the kit ATPlite (PerkinElmer) following the manufacturer's specifications. The luminescence signal was read at the instrument ENspire (PerkElmer). For each treated line, the % of inhibition of the growth with respect to the control and IC50 was calculated with software GraphPad Prism5 Software (San Diego, CA, USA). The combination index (CI) was calculated by using the program Compusyn (downloadable from www.combosyn.com), for the analysis of the combined effects of drugs based upon the equation of Chou-Talalay (Chou-Talalay, Adv Enzyme Regul 1984; 22:27-55). CI<1, =1, and >1 designates synergism, additive effect and antagonism, respectively.
PEO-1 were plated (100,000 cells/ml) in a 96-well black plate. In each well of the plate 200 μl of cell suspension were added.
The test system of experiment [11] is PEO-1. The experiment in a line: Cytotoxicity (ATPlite, 72 h) on PEO-1. To be noted: Homo sapiens, PEO1, 72 h, PEO-1 (ovary), read-out: IC50 values (μM ± SEM). Type of experiment: cell-based. As for the experimental part:
as §1, §2
24 h after plating the compounds were added in quadruplicate at the following concentrations: C8 (6 μM; 12 μM; 24 μM; 48 μM; 96 μM; 192 μM) and C21 (8 μM; 16 μM; 32 μM; 64 μM; 128 μM; 256 μM). […]

For experiment [12], the system named is PEO-1. The experiment in a line: Cytotoxic effect of compound 8 in combination with Cisplatin in PEO-1. It is filed as cell-based, human. To be noted: PEO-1, 72 h; IC50 of cisplatin alone or with C8 fixed at 44 μM; read-out: IC50 (μM ± SEM). As for the experimental part: Cisplatin (Sigma-Aldrich, St. […] The luminescence signal was read at the instrument […]). […] Parallelly, the single curves of Cisplatin and compound 8 were performed. […] Pharmacol Rev. 2006; 58:621-81).

Like-named read-outs stand apart in the source and are kept apart here.

Regarding `CC1=C(C#N)C(O)=NC(=O)/C1=C\c1ccc(-c2ccccc2)o1` [C8, (5Z)-2-hydroxy-4-methyl-6-oxy-5-[(5-phenylfuran-2il)methylidene]-5,6-dihydropyridine-3-carbonitrile], the IC50 in experiment [1] was above 100 µM; in [2] it was 3.4 ± 1.2 µM; in experiment [3] (Homo sapiens, NCI-H1299, 72 h), below 100 µM; in experiment [3] it was 87.8 ± 10 µM; in experiment [4], 13.8 µM; in experiment [5] it was above 100 µM. Further, the IC50 in experiment [6] was above 100 µM; in experiment [7] (Homo sapiens, MDA-MB-231, 72 h) it was below 100 µM; in experiment [7], 65 ± 15 µM; in [8], above 100 µM; in [9] it was 98.5 ± 0.5 µM; in experiment [9] (Homo sapiens, HCT-15, 72 h), below 100 µM. In experiment [2], the “NEK6 activity inhibition in screening” value is “most active”.
For `CC(=O)O[C@H]1C(=O)[C@@]2(C)[C@H]([C@H](OC(=O)c3ccccc3)[C@]3(O)C[C@H](OC(=O)[C@H](O)[C@@H](NC(=O)c4ccccc4)c4ccccc4)C(C)=C1C3(C)C)[C@]1(OC(C)=O)CO[C@@H]1C[C@@H]2O` [Paclitaxel], the IC50 in [10] was determined as 7 ± 0.001 nM.
As for `Nc1nc2c(c(=O)[nH]1)C(c1ccccc1)C1=C(N2)c2ccccc2C1=O` (stereo not drawn) [C21, 6-amino-2-phenyl-5,7,9-triazatetracycle[8.7.0.0^3,^8.0^11,^16]heptadeca 1(10),3(8),6,11,13,15 hexaene-4, 17-dione], the IC50 in experiment [1] is above 100 µM; in [2], 2.6 ± 0.05 µM; in experiment [3] (Homo sapiens, NCI-H1299, 72 h) it was above 100 µM; in experiment [4], 49.8 µM; in experiment [5] it was above 100 µM; in experiment [6], above 100 µM. The IC50 in experiment [7] (Homo sapiens, MDA-MB-231, 72 h) was below 100 µM; in experiment [7], 75 ± 12 µM; in experiment [11], above 100 µM; in experiment [8] it was above 100 µM; in experiment [9] (Homo sapiens, HCT-15, 72 h), above 100 µM. Also, the “NEK6 activity inhibition in screening” value in [2] is recorded as “most active”.
Turning to `N.N.[Cl][Pt][Cl]` [Cisplatin], the IC50 in experiment [12] turned out to be 7.9 ± 0.65 µM.
